Measured values reported in patent US8426408B2, “Pyrimidine inhibitors of kinases” (AbbVie Inc., priority 2009, dated 2013).

Experiments:
[1] = biological target: T1, Aurora B (Homo sapiens, UniProt Q96GD4); experiment: Aurora B enzyme inhibition (time-resolved fluorescence, histone H3 peptide); type: biochemical; conditions: 1 mM ATP
T1 construct: Active Aurora B enzyme (recombinant residues 1-344)
Outline: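 Recombinant Aurora B (residues 1-344) with GST-INCENP phosphorylated biotinylated histone H3 (1-21) peptide at 1 mM ATP in HEPES pH 7.4 with MgCl2, orthovanadate and Triton X-100 for 1 h. After EDTA stop, the phosphopeptide was detected by TR-FRET (Eu-cryptate anti-phospho-H3 / SA-APC, 665/615 nm ratio). IC50 from an exponential fit.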

[2] = biological target: KDR (Homo sapiens, UniProt P35968); experiment: KDR HTRF in vitro kinase assay; type: biochemical; set-up: purified enzyme (His6-KDR 789-1354, MW 63 kD); His6 (N); conditions: 1 mM ATP; read-out: KDR enzyme inhibition data (Ki)
Outline: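 His6-KDR 789-1354 (7 ng/well) with 0.5 μM biotinylated peptide substrate and 1 mM ATP in HEPES pH 7.1, MgCl2/MnCl2, 60 min at room temperature. EDTA-quenched, detected by streptavidin-XL-665 plus Eu-kryptate anti-phosphotyrosine HTRF after 3 h; IC50 from 620/665 nm ratio.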

T1 sequence (Q96GD4 whole entry, the tested form may be a part): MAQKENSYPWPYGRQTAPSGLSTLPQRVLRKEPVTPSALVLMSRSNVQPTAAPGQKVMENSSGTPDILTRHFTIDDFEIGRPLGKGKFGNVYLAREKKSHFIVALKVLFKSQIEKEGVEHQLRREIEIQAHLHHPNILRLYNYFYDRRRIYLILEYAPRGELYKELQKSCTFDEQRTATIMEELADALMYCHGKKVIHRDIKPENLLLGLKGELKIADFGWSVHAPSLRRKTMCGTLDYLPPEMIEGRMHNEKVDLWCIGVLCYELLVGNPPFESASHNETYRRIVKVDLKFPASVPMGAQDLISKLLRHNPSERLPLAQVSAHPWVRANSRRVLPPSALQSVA
T1 sequence (Q9NQS7 826-918 partner limits assumed): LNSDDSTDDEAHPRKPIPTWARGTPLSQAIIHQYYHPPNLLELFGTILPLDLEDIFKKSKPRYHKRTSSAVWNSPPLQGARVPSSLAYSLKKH
Sequence of KDR (P35968 789-1354): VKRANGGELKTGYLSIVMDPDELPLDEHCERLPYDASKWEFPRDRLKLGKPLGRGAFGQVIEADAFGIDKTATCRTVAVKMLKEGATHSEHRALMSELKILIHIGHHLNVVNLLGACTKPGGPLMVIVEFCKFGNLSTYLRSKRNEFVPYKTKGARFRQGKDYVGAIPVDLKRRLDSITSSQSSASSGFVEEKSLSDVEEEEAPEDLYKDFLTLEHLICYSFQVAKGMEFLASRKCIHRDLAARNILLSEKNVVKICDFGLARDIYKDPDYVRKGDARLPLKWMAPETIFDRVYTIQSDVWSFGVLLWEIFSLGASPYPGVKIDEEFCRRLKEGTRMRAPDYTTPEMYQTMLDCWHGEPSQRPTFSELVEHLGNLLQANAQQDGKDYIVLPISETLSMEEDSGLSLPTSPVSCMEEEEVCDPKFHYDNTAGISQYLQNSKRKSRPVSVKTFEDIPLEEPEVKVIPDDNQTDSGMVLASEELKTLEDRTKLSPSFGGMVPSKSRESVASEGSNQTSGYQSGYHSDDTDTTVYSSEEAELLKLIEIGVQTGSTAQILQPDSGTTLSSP

Compound | Ki [1] [nM] | Ki [2] [nM]
COc1cccc(Cn2cc(Nc3ncc(Br)c(N[C@H]4[C@@H](C(N)=O)[C@@H]5C=C[C@H]4C5)n3)cn2)c1 [Example 159, (1S,2S,3R,4R)-3-[(5-bromo-2-{[1-(3-methoxybenzyl)-1H-pyrazol-4-yl]amino}pyrimidin-4-yl)amino]bicyclo[2.2.1]hept-5-ene-2-carboxamide] | < 100 | < 100
COc1cccc(CCn2cc(Nc3ncc(Br)c(N[C@H]4[C@@H](C(N)=O)[C@@H]5C=C[C@H]4C5)n3)cn2)c1 [Example 160, (1S,2S,3R,4R)-3-{[5-bromo-2-({1-[2-(3-methoxyphenyl)ethyl]-1H-pyrazol-4-yl}amino)pyrimidin-4-yl]amino}bicyclo[2.2.1]hept-5-ene-2-carboxamide] | < 100 | < 100
NC(=O)[C@@H]1[C@H](Nc2nc(Nc3cnn(Cc4ccccc4Cl)c3)ncc2Cl)[C@H]2C=C[C@@H]1C2 [Example 161, (1S,2S,3R,4R)-3-[(5-chloro-2-{[1-(2-chlorobenzyl)-1H-pyrazol-4-yl]amino}pyrimidin-4-yl)amino]bicyclo[2.2.1]hept-5-ene-2-carboxamide] | < 100 | < 100
NC(=O)[C@@H]1[C@H](Nc2nc(Nc3cnn(Cc4ccc(Cl)cc4)c3)ncc2Cl)[C@H]2C=C[C@@H]1C2 [Example 162, (1S,2S,3R,4R)-3-[(5-chloro-2-{[1-(4-chlorobenzyl)-1H-pyrazol-4-yl]amino}pyrimidin-4-yl)amino]bicyclo[2.2.1]hept-5-ene-2-carboxamide] | < 100 | < 100
Cn1cc(Nc2ncc(Cl)c(N[C@H]3[C@@H](C(N)=O)C[C@H]4C[C@@H]3C4(C)C)n2)cn1 [Example 165, (1R,2R,3S,5R)-2-({5-chloro-2-[(1-methyl-1H-pyrazol-4-yl)amino]pyrimidin-4-yl}amino)-6,6-dimethylbicyclo[3.1.1]heptane-3-carboxamide] | < 100 | < 100
Cn1cc(Nc2ncc(C(F)(F)F)c(N[C@H]3[C@@H](C(N)=O)C[C@H]4C[C@@H]3C4(C)C)n2)cn1 [Example 167, (1R,2R,3S,5R)-6,6-dimethyl-2-({2-[(1-methyl-1H-pyrazol-4-yl)amino]-5-(trifluoromethyl)pyrimidin-4-yl}amino)bicyclo[3.1.1]heptane-3-carboxamide] | < 100 | < 100
CCn1cc(Nc2ncc(C(F)(F)F)c(N[C@H]3[C@@H](C(N)=O)C[C@H]4C[C@@H]3C4(C)C)n2)cn1 [Example 168, (1R,2R,3S,5R)-2-({2-[(1-ethyl-1H-pyrazol-4-yl)amino]-5-(trifluoromethyl)pyrimidin-4-yl}amino)-6,6-dimethylbicyclo[3.1.1]heptane-3-carboxamide] | < 100 | < 100
Cc1c(Nc2ncc(Cl)c(N[C@H]3[C@@H](C(N)=O)[C@@H]4C=C[C@H]3C4)n2)cnn1C [Example 169, (1S,2S,3R,4R)-3-({5-chloro-2-[(1,5-dimethyl-1H-pyrazol-4-yl)amino]pyrimidin-4-yl}amino)bicyclo[2.2.1]hept-5-ene-2-carboxamide] | < 100 | < 100
(1S,2R)-2-{[5-chloro-2-({1-[2-(morpholin-4-yl)ethyl]-1H-pyrazol-4-yl}amino)pyrimidin-4-yl]amino}cyclopentanecarboxamide and (1R,2S)-2-{[5-chloro-2-({1-[2-(morpholin-4-yl)ethyl]-1H-pyrazol-4-yl}amino)pyrimidin-4-yl]amino}cyclopentanecarboxamide [Example 137] | < 100 | < 100

Now from value to compound:

Ki [1] [nM] | Ki [2] [nM] | Compound
< 100 | < 100 | Cc1c(Nc2ncc(Br)c(N[C@H]3[C@@H](C(N)=O)[C@@H]4C=C[C@H]3C4)n2)cnn1C [Example 170, (1S,2S,3R,4R)-3-({5-bromo-2-[(1,5-dimethyl-1H-pyrazol-4-yl)amino]pyrimidin-4-yl}amino)bicyclo[2.2.1]hept-5-ene-2-carboxamide]
< 100 | < 100 | NC(=O)[C@@H]1[C@H](Nc2nc(Nc3cnn(Cc4ccccc4Cl)c3)ncc2Br)[C@H]2C=C[C@@H]1C2 [Example 171, (1S,2S,3R,4R)-3-[(5-bromo-2-{[1-(2-chlorobenzyl)-1H-pyrazol-4-yl]amino}pyrimidin-4-yl)amino]bicyclo[2.2.1]hept-5-ene-2-carboxamide]
< 100 | < 100 | NC(=O)[C@@H]1[C@H](Nc2nc(Nc3cnn(Cc4ccc(Cl)cc4)c3)ncc2Br)[C@H]2C=C[C@@H]1C2 [Example 172, (1S,2S,3R,4R)-3-[(5-bromo-2-{[1-(4-chlorobenzyl)-1H-pyrazol-4-yl]amino}pyrimidin-4-yl)amino]bicyclo[2.2.1]hept-5-ene-2-carboxamide]
< 100 | < 100 | NC(=O)[C@@H]1[C@H](Nc2nc(Nc3cnn(-c4ccccc4)c3)ncc2Br)[C@H]2C=C[C@@H]1C2 [Example 173, (1S,2S,3R,4R)-3-({5-bromo-2-[(1-phenyl-1H-pyrazol-4-yl)amino]pyrimidin-4-yl}amino)bicyclo[2.2.1]hept-5-ene-2-carboxamide]
< 100 | < 100 | NC(=O)[C@@H]1[C@H](Nc2nc(Nc3cnn(-c4ccccc4)c3)ncc2Cl)[C@H]2C=C[C@@H]1C2 [Example 174, (1S,2S,3R,4R)-3-({5-chloro-2-[(1-phenyl-1H-pyrazol-4-yl)amino]pyrimidin-4-yl}amino)bicyclo[2.2.1]hept-5-ene-2-carboxamide]
< 100 | < 100 | Cc1cccc(Cn2cc(Nc3ncc(Cl)c(N[C@H]4[C@@H](C(N)=O)[C@@H]5C=C[C@H]4C5)n3)cn2)c1 [Example 178, (1S,2S,3R,4R)-3-[(5-chloro-2-{[1-(3-methylbenzyl)-1H-pyrazol-4-yl]amino}pyrimidin-4-yl)amino]bicyclo[2.2.1]hept-5-ene-2-carboxamide]
< 100 | < 100 | NC(=O)[C@@H]1[C@H](Nc2nc(Nc3cnn(Cc4ccc5ccccc5c4)c3)ncc2Cl)[C@H]2C=C[C@@H]1C2 [Example 179, (1S,2S,3R,4R)-3-[(5-chloro-2-{[1-(2-naphthylmethyl)-1H-pyrazol-4-yl]amino}pyrimidin-4-yl)amino]bicyclo[2.2.1]hept-5-ene-2-carboxamide]
< 100 | < 100 | COc1ccc(Cn2cc(Nc3ncc(Cl)c(N[C@H]4[C@@H](C(N)=O)[C@@H]5C=C[C@H]4C5)n3)cn2)cc1F [Example 192, (1S,2S,3R,4R)-3-[(5-chloro-2-{[1-(3-fluoro-4-methoxybenzyl)-1H-pyrazol-4-yl]amino}pyrimidin-4-yl)amino]bicyclo[2.2.1]hept-5-ene-2-carboxamide]
